The values below come from patent publication US20260274832A1, “COMPOUNDS AND THEIR USE IN TREATING CANCER” (ASTRAZENECA AB, priority 2023, published 2026).

Test [1] deals with T1, AR (AR-full length) in LNCaP cells (Homo sapiens, UniProt P10275, T878A).
T1 construct: the prostate cancer cell line LNCaP (expressing AR-full length); endogenous in cells; host or cells: LNCaP
Briefly: LNCaP Androgen Receptor Imaging Assay (immunofluorescence of endogenous nuclear AR). The class given is cell-based. To be noted: 24 h incubation; for DC50: concentration giving 50% of maximum degradation of AR per curve fit, single experiment or average of two or more; for Dmax: LNCaP. An outline of the steps: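 Endogenous nuclear AR level was imaged by immunofluorescence after 24 h compound exposure (12-point dose response, 0.3% DMSO, 37° C./5% CO2) in LNCaP cells. Data were expressed as % of a 3 μM prior-art AR PROTAC control and fitted (bell fit where a hook appeared) to give DC50 and maximum degradation Dmax.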

Test [2] concerns the target T2, AR (L702H) in LNCaP cells (Homo sapiens, UniProt P10275, L702H/T878A).
T2 construct: engineered to introduce the mutation L702H into the AR gene using CRISPR/Cas9; endogenous in cells; host or cells: LNCaP cells edited by CRISPR/Cas9 at the AR gene
The experiment in a line: LNCaP Androgen Receptor L702H Imaging Assay (LNCaP cells engineered by CRISPR/Cas9). The class given is cell-based. Particulars: LNCaP cells with AR L702H mutation, 24 h incubation; for DC50: concentration giving 50% of maximum degradation of AR (L702H) per curve fit; for Dmax: LNCaP. In short, it runs like this: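 AR (L702H) degradation, expressed as DC50 and Dmax from curve fits normalized to a positive degrader control, was measured by high-content imaging of anti-AR immunofluorescence. The engineered LNCaP line was dosed over 12 concentrations for 24 h, 0.3% DMSO final, before PFA fixation.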

The mark [3] stands for this setting: maximum degradation observed, normalized as % of positive control (prior art AR PROTAC at 3 μM).
[4] abbreviates: maximum degradation observed, normalized as % of positive control.

T1 sequence (P10275 whole entry T878A): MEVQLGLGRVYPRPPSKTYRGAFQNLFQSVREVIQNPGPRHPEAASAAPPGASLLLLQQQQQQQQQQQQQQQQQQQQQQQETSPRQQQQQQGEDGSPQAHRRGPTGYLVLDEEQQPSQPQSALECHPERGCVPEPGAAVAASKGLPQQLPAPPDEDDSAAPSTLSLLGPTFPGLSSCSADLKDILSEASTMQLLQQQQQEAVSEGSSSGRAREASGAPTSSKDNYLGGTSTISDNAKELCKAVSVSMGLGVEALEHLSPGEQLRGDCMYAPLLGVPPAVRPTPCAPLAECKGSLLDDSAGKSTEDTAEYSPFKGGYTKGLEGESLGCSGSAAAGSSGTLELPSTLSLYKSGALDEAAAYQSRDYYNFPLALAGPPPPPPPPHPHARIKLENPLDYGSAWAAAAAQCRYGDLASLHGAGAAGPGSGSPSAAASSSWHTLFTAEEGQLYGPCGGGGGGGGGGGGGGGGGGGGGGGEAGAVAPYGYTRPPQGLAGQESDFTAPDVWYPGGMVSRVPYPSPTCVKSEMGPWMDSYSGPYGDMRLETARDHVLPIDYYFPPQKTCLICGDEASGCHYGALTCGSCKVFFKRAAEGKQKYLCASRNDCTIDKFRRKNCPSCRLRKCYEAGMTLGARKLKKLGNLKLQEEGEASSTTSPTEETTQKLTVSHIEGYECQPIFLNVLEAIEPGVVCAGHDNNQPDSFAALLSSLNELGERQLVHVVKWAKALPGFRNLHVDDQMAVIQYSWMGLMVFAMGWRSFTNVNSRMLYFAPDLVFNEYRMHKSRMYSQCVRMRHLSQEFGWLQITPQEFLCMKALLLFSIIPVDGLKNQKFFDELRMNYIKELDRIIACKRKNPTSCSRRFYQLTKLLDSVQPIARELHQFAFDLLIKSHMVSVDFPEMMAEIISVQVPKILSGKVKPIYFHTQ
T1 sequence (Q96SW2 whole entry partner): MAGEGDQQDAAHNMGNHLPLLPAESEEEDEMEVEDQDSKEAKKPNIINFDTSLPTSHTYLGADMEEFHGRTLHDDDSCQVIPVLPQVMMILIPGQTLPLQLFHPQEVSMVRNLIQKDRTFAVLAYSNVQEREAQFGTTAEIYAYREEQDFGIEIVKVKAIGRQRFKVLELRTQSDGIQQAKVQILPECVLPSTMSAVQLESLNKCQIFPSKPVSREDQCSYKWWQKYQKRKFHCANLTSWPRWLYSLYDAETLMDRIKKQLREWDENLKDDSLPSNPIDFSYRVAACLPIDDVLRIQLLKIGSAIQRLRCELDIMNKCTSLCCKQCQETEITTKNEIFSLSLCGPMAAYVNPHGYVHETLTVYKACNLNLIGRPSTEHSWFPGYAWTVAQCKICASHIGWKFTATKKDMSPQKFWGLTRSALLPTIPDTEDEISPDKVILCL
T2 sequence (P10275 whole entry L702H/T878A): as the sequence (P10275 whole entry T878A) above, with L702H counted along it
T2 sequence (Q96SW2 whole entry partner): as the sequence (Q96SW2 whole entry partner) above

As a reminder, the DC50 is the concentration giving 50% degradation. A lower DC50 goes with a more potent degrader. One may read the Dmax as the greatest extent of degradation seen. Turning to `N#Cc1n[nH]c2c(N3CCC[C@@H](c4ccc(N5CCC(CN6CCC(n7ccc8c(N9CCC(=O)NC9=O)cccc87)CC6)CC5)cc4)C3)ccc(F)c12` [Example 134, 7-[(3S)-3-{4-[4-({4-[4-(2,4-Dioxo-1,3-diazinan-1-yl)-1H-indol-1-yl]piperidin-1-yl}methyl)piperidin-1-yl]phenyl}piperidin-1-yl]-4-fluoro-1H-indazole-3-carbonitrile], the half-maximal degradation concentration (DC50) was found to be 5 nM in test [1] and 22 nM in test [2]. In addition, the Dmax in test [1] (setting [3]) came out at 106%; in test [2] (setting [4]), 94%.

As for `N#Cc1c[nH]c2c(N3CCC(NC(=O)c4ccc(N5CCC(CN6CCN(c7cc8c(cc7F)C(=O)N(C7CCC(=O)NC7=O)C8=O)CC6)CC5)cc4F)CC3)ccc(Cl)c12` (stereo not drawn) [Example 161, N-[1-(4-Chloro-3-cyano-1H-indol-7-yl)piperidin-4-yl]-4-[4-({4-[2-(2,6-dioxopiperidin-3-yl)-6-fluoro-1,3-dioxo-2,3-dihydro-1H-isoindol-5-yl]piperazin-1-yl}methyl)piperidin-1-yl]-2-fluorobenzamide], the DC50 worked out at 7 nM in test [1] and 20 nM in test [2]. The figures for the Dmax in test [1] (setting [3]) and in test [2] (setting [4]) were 95% and 98%, respectively.

For the compound `Cc1ccc(C2CCCN(c3ccc(OCCCCN4CCN(c5ccc6c(c5)CN(C5CCC(=O)NC5=O)C6=O)CC4)cc3)C2)c2[nH]cc(C#N)c12` (single isomer, unassigned) [Example 79, 7-{(3S*)-1-[4-(4-{4-[2-(2,6-dioxopiperidin-3-yl)-1-oxo-2,3-dihydro-1H-isoindol-5-yl]piperazin-1-yl}butoxy)phenyl]piperidin-3-yl}-4-methyl-1H-indole-3-carbonitrile], the half-maximal degradation concentration (DC50) turned out to be 9 nM in test [1] and 21 nM in test [2]. In addition, in test [1] (setting [3]), the “LNCaP AR Degradation Dmax” value was determined as 92%. In addition, the “LNCaP AR (L702H) Degradation Dmax” value in test [2] (setting [4]) is reported as 79%.

As for `N#Cc1c[nH]c2c(N3CCC(NC(=O)c4ccc(N5CCC(N6CCN(c7cc8c(cc7F)C(=O)N(C7CCC(=O)NC7=O)C8=O)CC6)CC5)cn4)CC3)ccc(Cl)c12` (stereo not drawn) [Example 166, N-[1-(4-Chloro-3-cyano-1H-indol-7-yl)piperidin-4-yl]-5-(4-{4-[2-(2,6-dioxopiperidin-3-yl)-6-fluoro-1,3-dioxo-2,3-dihydro-1H-isoindol-5-yl]piperazin-1-yl}piperidin-1-yl)pyridine-2-carboxamide], the DC50 turned out to be 4 nM in test [1] and 37 nM in test [2]. The Dmax in test [1] (setting [3]) amounted to 85%; in test [2] (setting [4]), 92%.

Consider `COc1nc(N2CCN(CCCCOc3ccc(C4CCN(c5ccc(C)c6c(C#N)c[nH]c56)CC4)cc3)CC2)cc2c1C(=O)N(C1CCC(=O)NC1=O)C2` (stereo not drawn) [Example 31, 7-{4-[4-(4-{4-[2-(2,6-Dioxopiperidin-3-yl)-4-methoxy-3-oxo-2,3-dihydro-1H-pyrrolo[3,4-c]pyridin-6-yl]piperazin-1-yl}butoxy)phenyl]piperidin-1-yl}-4-methyl-1H-indole-3-carbonitrile], for which the 50% degradation concentration (DC50) is 8 nM in test [1] and 22 nM in test [2]. The Dmax came out at 94% in test [1] (setting [3]) and 88% in test [2] (setting [4]).

`COc1nc(N2CCN(CC3CCN(c4ccc(C5CCN(c6ccc(F)c7c(C#N)c[nH]c67)CC5)cc4)CC3)CC2)cc2c1C(=O)N(C1CCC(=O)NC1=O)C2` (stereo not drawn) [Example 37, 7-(4-{4-[4-({4-[2-(2,6-Dioxopiperidin-3-yl)-4-methoxy-3-oxo-2,3-dihydro-1H-pyrrolo[3,4-c]pyridin-6-yl]piperazin-1-yl}methyl)piperidin-1-yl]phenyl}piperidin-1-yl)-4-fluoro-1H-indole-3-carbonitrile]: the DC50 stood at 15 nM in test [1] and 11 nM in test [2]. In addition, the results for the Dmax in test [1] (setting [3]) and in test [2] (setting [4]) were 90% and 100%, respectively.

As to `N#Cc1c[nH]c2c(N3CCC(c4cnc(N5CCC(CN6CCN(c7ccc8c(c7)CN(C7CCC(=O)NC7=O)C8=O)CC6)CC5)nc4)CC3)ccc(Cl)c12` (stereo not drawn) [Example 124, 4-Chloro-7-(4-{2-[4-({4-[2-(2,6-dioxopiperidin-3-yl)-1-oxo-2,3-dihydro-1H-isoindol-5-yl]piperazin-1-yl}methyl)piperidin-1-yl]pyrimidin-5-yl}piperidin-1-yl)-1H-indole-3-carbonitrile], the 50% degradation concentration (DC50) turned out to be 3 nM in test [1] and 9 nM in test [2]. Also, the Dmax is 95% in test [1] (setting [3]) and 93% in test [2] (setting [4]).

As to `N#Cc1c[nH]c2c(N3CCC(c4ccc(N5CCC(CN6CCC(n7ccc8c(N9CCC(=O)NC9=O)cccc87)CC6)CC5)cc4)CC3)ccc(Cl)c12` [Example 5, 4-Chloro-7-(4-{4-[4-({4-[4-(2,4-dioxo-1,3-diazinan-1-yl)-1H-indol-1-yl]piperidin-1-yl}methyl)piperidin-1-yl]phenyl}piperidin-1-yl)-1H-indole-3-carbonitrile], the DC50 in test [1] turned out to be 8 nM; in test [2], 12 nM. Further, the Dmax in test [1] (setting [3]) amounted to 103%; in test [2] (setting [4]), 110%.

As to `N#Cc1n[nH]c2c(N3CCC(c4ccc(N5CCC(CN6CCC(n7ccc8c(N9CCC(=O)NC9=O)cccc87)CC6)CC5)cc4)CC3)ccc(Cl)c12` [Example 146, 4-Chloro-7-(4-{4-[4-({4-[4-(2,4-dioxo-1,3-diazinan-1-yl)-1H-indol-1-yl]piperidin-1-yl}methyl)piperidin-1-yl]phenyl}piperidin-1-yl)-1H-indazole-3-carbonitrile], the DC50 amounted to 27 nM in test [1] and 38 nM in test [2]. Also, the Dmax was determined as 100% in test [1] (setting [3]) and 102% in test [2] (setting [4]).

On to `N#Cc1c[nH]c2c(C3CCCN(c4ccc(N5CCC(CN6CCN(c7ccc8c(c7)CN(C7CCC(=O)NC7=O)C8=O)CC6)CC5)cc4)C3)ccc(Cl)c12` (single isomer, unassigned) [Example 93, 4-Chloro-7-[(3R*)-1-{4-[4-({4-[2-(2,6-dioxopiperidin-3-yl)-1-oxo-2,3-dihydro-1H-isoindol-5-yl]piperazin-1-yl}methyl)piperidin-1-yl]phenyl}piperidin-3-yl]-1H-indole-3-carbonitrile], for which the DC50 was 20 nM in test [1] and 11 nM in test [2]. The Dmax in test [1] (setting [3]) turned out to be 87%; in test [2] (setting [4]) it was 95%.

Take `N#Cc1n[nH]c2c(N3CCC(NC(=O)c4ccc(N5CCC(CN6CCC(n7ccc8c(N9CCC(=O)NC9=O)cccc87)CC6)CC5)cn4)CC3)ccc(Cl)c12` [Example 170, N-[1-(4-Chloro-3-cyano-1H-indazol-7-yl)piperidin-4-yl]-5-[4-({4-[4-(2,4-dioxo-1,3-diazinan-1-yl)-1H-indol-1-yl]piperidin-1-yl}methyl)piperidin-1-yl]pyridine-2-carboxamide]: the DC50 stood at 1 nM in test [1] and 2 nM in test [2]. Also, the figures for the Dmax in test [1] (setting [3]) and in test [2] (setting [4]) were 100% and 101%, respectively.

As to `N#Cc1c[nH]c2c(N3CCC(c4ccc(N5CC6(CCC(CN7CCN(c8ccc9c(c8)CN(C8CCC(=O)NC8=O)C9=O)CC7)CC6)C5)cc4)CC3)ccc(F)c12` (stereo not drawn) [Example 128, 7-(4-{4-[7-({4-[2-(2,6-Dioxopiperidin-3-yl)-1-oxo-2,3-dihydro-1H-isoindol-5-yl]piperazin-1-yl}methyl)-2-azaspiro[3.5]nonan-2-yl]phenyl}piperidin-1-yl)-4-fluoro-1H-indole-3-carbonitrile], the values for the 50% degradation concentration (DC50) in test [1] and in test [2] were 26 nM and 61 nM, respectively. The values for the Dmax in test [1] (setting [3]) and in test [2] (setting [4]) were 102% and 103%, respectively.

Consider `N#Cc1cc(N2CCC(CN3CCC(n4ccc5c(N6CCC(=O)NC6=O)cccc54)CC3)CC2)ccc1C(=O)NC1CCN(c2ccc(Cl)c3c(C#N)c[nH]c23)CC1` [Example 162, N-[1-(4-Chloro-3-cyano-1H-indol-7-yl)piperidin-4-yl]-2-cyano-4-[4-({4-[4-(2,4-dioxo-1,3-diazinan-1-yl)-1H-indol-1-yl]piperidin-1-yl}methyl)piperidin-1-yl]benzamide], for which the DC50 in test [1] and in test [2] was 1 nM each time. Moreover, the Dmax in test [1] (setting [3]) stood at 106%; in test [2] (setting [4]) it was 110%.

Turning to `N#Cc1c[nH]c2c(N3CCC(c4ccc(N5CCC(CN6CCC(n7ccc8c(N9CCC(=O)NC9=O)cccc87)CC6)CC5)cn4)CC3)ccc(Cl)c12` [Example 62, 4-Chloro-7-(4-{5-[4-({4-[4-(2,4-dioxo-1,3-diazinan-1-yl)-1H-indol-1-yl]piperidin-1-yl}methyl)piperidin-1-yl]pyridin-2-yl}piperidin-1-yl)-1H-indole-3-carbonitrile], the 50% degradation concentration (DC50) in test [1] amounted to 7 nM; in test [2] it was 80 nM. Moreover, the Dmax in test [1] (setting [3]) was determined as 99%; in test [2] (setting [4]), 71%.

As to `N#Cc1c[nH]c2c(N3CCC(c4ccc(OCCCCN5CCN(c6ccc7c(c6)CN(C6CCC(=O)NC6=O)C7=O)CC5)cc4)CC3)cccc12` (stereo not drawn) [Example 57], the figures for the DC50 in test [1] and in test [2] were 18 nM and 31 nM, respectively. Also, the Dmax in test [1] (setting [3]) was 87%; in test [2] (setting [4]), 79%.
